# What was measured:
# [1] = Reactivity toward L-cysteine as nucleophile (absorbance 425 nm); format: physicochemical; details: 1 mM L-cysteine in sodium phosphate buffer, pH 7; read-out: t1/2 of absorbance quenching by L-cysteine
# Description: Natural log values were determined based on 1st order kinetics.
# Weber et al., (2005) Bioorg Med Chem 13, 3811-3820. These groups potentially serve as Michael acceptors which are chemically reactive and can form undesirable covalent modifications with biomolecules. Michael acceptors are generally thought to be poor drug compounds because of their high reactivity toward nucleophilies.
# These groups potentially serve as Michael acceptors which are a chemically reactive species that can form undesirable covalent modifications with binding targets. […] Michael acceptors are generally thought to be poor drug compounds because of their high reactivity toward nucleophiles. […] In addition, at or below neutral pH, primary amino groups are predominantly in their protonated form and therefore weak nucleophiles that are unlikely to react to any significant extent with curcumin.
# [2] = target: Aβ oligomers and fibrils (Homo sapiens (Human), UniProt P05067); details: cited from earlier work
# Chain of Aβ oligomers and fibrils (P05067 672-711): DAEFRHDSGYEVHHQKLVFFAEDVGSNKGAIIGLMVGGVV
compound,measurement,setting,value
"COc1cc(/C=C/C(=O)/C=C(O)/C=C/c2ccc(O)c(OC)c2)ccc1O [analog 3a, 1,7-Bis(4-hydroxy-3-methoxyphenyl)-1,6-heptadiene-3,5-dione]",half-life at 20 μM,[1],7.2 min
same,IC50 for disaggregation of preformed fibrils,[2]; in vitro,1000 nM
same,IC50 for fibril inhibition,[2]; in vitro,800 nM
same,"IC50 for Aβ oligomerization reported by Yang, et al.",[2]; non-biotinylated Aβ(1-40),~1000 nM

# Source: patent US9187397B2 (STC.UNM, priority 2004, dated 2015)
